Here are results for 23 compounds from patent US9598387B2 (Southern Research Institute, priority 2012, dated 2017).

The target of assay [1] is human D3 dopamine receptor (Homo sapiens (Human), UniProt P35462). As to the kind of experiment: Radioligand binding (125I-IABN competition), D3. Conditions: for Ki: 125I-IABN competition, HEK cell membranes expressing human D3; for D2/D3 (D3 selectivity ratio, D2 Ki/D3 Ki): calculated D2 Ki/D3 Ki. The method, then:
(§1) The affinities of the target compounds were determined using radioligand binding experiments. […] Competition curves were modeled for a single site. Data from competition dose-response curves were analyzed using Tablecurve program (Jandel). IC50 values were converted to equilibrium dissociation constants (Ki values) using the Cheng and Prusoff correction.

Assay [2] deals with human D2-long dopamine receptor (Homo sapiens (Human), UniProt P14416). As to the kind of experiment: Radioligand binding (125I-IABN competition), D2. Conditions: HEK cell membranes expressing human D2-long. The method, then: as §1
Chain of human D2-long dopamine receptor (P14416 whole entry): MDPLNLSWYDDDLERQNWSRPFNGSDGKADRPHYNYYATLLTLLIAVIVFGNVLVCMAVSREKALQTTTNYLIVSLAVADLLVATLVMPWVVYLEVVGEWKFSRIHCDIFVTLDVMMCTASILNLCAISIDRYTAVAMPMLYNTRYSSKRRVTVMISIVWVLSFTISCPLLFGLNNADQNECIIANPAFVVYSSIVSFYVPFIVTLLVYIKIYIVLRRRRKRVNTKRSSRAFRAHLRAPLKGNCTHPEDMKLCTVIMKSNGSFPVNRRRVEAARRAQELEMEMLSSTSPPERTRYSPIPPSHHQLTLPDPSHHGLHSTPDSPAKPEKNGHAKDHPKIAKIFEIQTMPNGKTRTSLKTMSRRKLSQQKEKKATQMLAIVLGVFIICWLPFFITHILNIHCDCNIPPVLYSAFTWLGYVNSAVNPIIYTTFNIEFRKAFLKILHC

Chain of human D3 dopamine receptor (P35462 whole entry): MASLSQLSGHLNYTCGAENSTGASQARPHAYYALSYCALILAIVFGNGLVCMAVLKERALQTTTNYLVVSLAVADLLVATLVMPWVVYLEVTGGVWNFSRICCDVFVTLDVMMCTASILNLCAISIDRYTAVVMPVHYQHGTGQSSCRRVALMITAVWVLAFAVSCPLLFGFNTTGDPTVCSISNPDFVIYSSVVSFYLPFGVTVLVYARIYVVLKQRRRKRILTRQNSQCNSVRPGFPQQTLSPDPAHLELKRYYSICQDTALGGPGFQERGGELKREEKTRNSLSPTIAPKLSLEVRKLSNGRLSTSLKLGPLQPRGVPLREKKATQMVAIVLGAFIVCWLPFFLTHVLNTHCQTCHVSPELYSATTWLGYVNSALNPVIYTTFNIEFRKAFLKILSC

As for `CC(C)(C)c1nc(N2CCN(CCCCNC(=O)N3CCc4[nH]c5ccc(C(F)(F)F)cc5c4C3)CC2)cc(C(F)(F)F)n1` [Compound 93, N-(4-(4-(2-(tert-Butyl)-6-(trifluoromethyl)pyrimidin-4-yl)piperazin-1-yl)butyl)-8-(trifluoromethyl)-3,4-dihydro-1H-pyrido[4,3-b]indole-2(5H)-carboxamide], in assay [1], affinity was put at a Ki of 84.8 ± 21.3 nM and the “D2/D3 (D3 selectivity ratio, D2 Ki/D3 Ki)” value is given as 7. Further, the Ki in assay [2] amounted to 560 ± 53 nM.
With `Cc1cccc(N2CCN(C(=O)NCCCCN3CCN(c4cc(C(F)(F)F)nc(C(C)(C)C)n4)CC3)CC2)c1` [Compound 22, N-(4-(4-(2-(tert-Butyl)-6-(trifluoromethyl)pyrimidin-4-yl)piperazin-1-yl)butyl)-4-(m-tolyl)piperazine-1-carboxamide], the Ki in assay [1] was found to be 24.7 ± 5.4 nM; in assay [2], 928 ± 231 nM. Moreover, the “D2/D3 (D3 selectivity ratio, D2 Ki/D3 Ki)” value in assay [1] is on record as 38.
With `O=C(NCCCCN1CCN(c2ccnc3cc(Cl)ccc23)CC1)C1CCC(c2ccccc2)CC1` (centres unmarked) [Compound 105, N-(4-(4-(7-Chloroquinolin-4-yl)piperazin-1-yl)butyl)-4-phenylcyclohexanecarboxamide], in assay [1], the Ki came out at 34.5 ± 7.6 nM and the “D2/D3 (D3 selectivity ratio, D2 Ki/D3 Ki)” value was 29. In assay [2], this compound registered an inhibition constant (Ki) of 1020 ± 68.2 nM.
On to `CC(C)(C)c1nc(N2CCN(CCCCNC(=O)N3CCC(O)(c4ccc(Cl)cc4)CC3)CC2)cc(C(F)(F)F)n1` [Compound 79, N-(4-(4-(2-(tert-Butyl)-6-(trifluoromethyl)pyrimidin-4-yl)piperazin-1-yl)butyl)-4-(4-chlorophenyl)-4-hydroxypiperidine-1-carboxamide], for which the Ki in assay [1] was 51.8 ± 11.4 nM; in assay [2] it was 834 ± 133 nM. The “D2/D3 (D3 selectivity ratio, D2 Ki/D3 Ki)” value in assay [1] is 16.
In the same order, the values of `CC(C)(C)c1cc(N2CCN(CCCCNC(=O)N3CCc4[nH]c5ccccc5c4C3)CC2)cc(C(C)(C)C)c1` [Compound 97, N-(4-(4-(3,5-Di-tert-butylphenyl)piperazin-1-yl)butyl)-3,4-dihydro-1H-pyrido[4,3-b]indole-2(5H)-carboxamide] are 245 ± 46.4 nM, 2440 ± 175 nM and 10.
Take `CC(C)(C)c1nc(N2CCN(CCCCNC(=O)N3CCN(C4CC4)CC3)CC2)cc(C(F)(F)F)n1` [Compound 35, N-(4-(4-(2-(tert-Butyl)-6-(trifluoromethyl)pyrimidin-4-yl)piperazin-1-yl)butyl)-4-cyclopropylpiperazine-1-carboxamide]: in assay [1], the Ki was 12.8 ± 2.3 nM and the “D2/D3 (D3 selectivity ratio, D2 Ki/D3 Ki)” value is 26. The affinity in assay [2], expressed as Ki, was 331 ± 51.9 nM.
For `CC(C)(C)c1nc(N2CCN(CCCCNC(=O)N3CCC(N4CCCCC4)CC3)CC2)cc(C(F)(F)F)n1` [Compound 75, N-(4-(4-(2-(tert-Butyl)-6-(trifluoromethyl)pyrimidin-4-yl)piperazin-1-yl)butyl)-[1,4′-bipiperidine]-1′-carboxamide], in that order: 9.9 ± 1.7 nM, 6 and 59.3 ± 7.5 nM.
As for `CC(C)(C)c1nc(N2CCN(CCCCNC(=O)N3CCC(O)(c4ccccc4)CC3)CC2)cc(C(F)(F)F)n1` [Compound 49, N-(4-(4-(2-(tert-Butyl)-6-(trifluoromethyl)pyrimidin-4-yl)piperazin-1-yl)butyl)-4-hydroxy-4-phenylpiperidine-1-carboxamide], the Ki in assay [1] is 27 ± 3.9 nM; in assay [2] it was 1270 ± 291 nM. Also, in assay [1], the “D2/D3 (D3 selectivity ratio, D2 Ki/D3 Ki)” value is given as 47.
On to `CC(C)(C)c1nc(N2CCN(CCCCNC(=O)N3CCC(C#N)(c4ccccc4)CC3)CC2)cc(C(F)(F)F)n1` [Compound 17, N-(4-(4-(2-(tert-Butyl)-6-(trifluoromethyl)pyrimidin-4-yl)piperazin-1-yl)butyl)-4-cyano-4-phenylpiperidine-1-carboxamide], for which the Ki in assay [1] was 16 nM; in assay [2] it was 843 ± 95 nM. The “D2/D3 (D3 selectivity ratio, D2 Ki/D3 Ki)” value in assay [1] is given as 52.
In the same order, the values of `CC(C)(C)c1nc(N2CCN(CCCCNC(=O)N3CCN(c4ccc(Cl)cc4)CC3)CC2)cc(C(F)(F)F)n1` [Compound 57, N-(4-(4-(2-(tert-Butyl)-6-(trifluoromethyl)pyrimidin-4-yl)piperazin-1-yl)butyl)-4-(4-chlorophenyl)piperazine-1-carboxamide] are 35.5 ± 7.2 nM, 644 ± 6.6 nM and 18.
As for `CC(C)(C)c1nc(N2CCN(CCCCNC(=O)N3CCN(Cc4cccc(C#N)c4)CC3)CC2)cc(C(F)(F)F)n1` [Compound 72, N-(4-(4-(2-(tert-Butyl)-6-(trifluoromethyl)pyrimidin-4-yl)piperazin-1-yl)butyl)-4-(3-cyanobenzyl)piperazine-1-carboxamide], the values for the Ki in assay [1] and in assay [2] were 84.2 ± 20.3 nM and 820 ± 178 nM, respectively. The “D2/D3 (D3 selectivity ratio, D2 Ki/D3 Ki)” value in assay [1] is 10.
As for `Cc1cc(N2CCN(CCCCNC(=O)N3CCN(S(=O)(=O)c4ccccc4)CC3)CC2)nc(C(C)(C)C)n1` [Compound 46, N-(4-(4-(2-(tert-Butyl)-6-methylpyrimidin-4-yl)piperazin-1-yl)butyl)-4-(phenylsulfonyl)piperazine-1-carboxamide], the Ki was determined as 31.9 ± 7.2 nM in assay [1] and 906 ± 169 nM in assay [2]. Besides, in assay [1], the “D2/D3 (D3 selectivity ratio, D2 Ki/D3 Ki)” value is listed as 28.
Turning to `CC(C)(C)c1cc(N2CCN(CCCCNC(=O)N3CCN(c4ccccc4)CC3)CC2)nc(C(C)(C)C)n1` [Compound 10, N-(4-(4-(2,6-Di-tert-butylpyrimidin-4-yl)piperazin-1-yl)butyl)-4-phenylpiperazine-1-carboxamide], in assay [1], the affinity corresponds to a Ki of 15.1 ± 4.2 nM and the “D2/D3 (D3 selectivity ratio, D2 Ki/D3 Ki)” value is 22. The Ki in assay [2] worked out at 337 ± 67.8 nM.
As to `O=C(NCCCCN1CCN(c2ccc3ccccc3n2)CC1)C1CCC(c2ccccc2)CC1` (centres unmarked) [Compound 106, 4-Phenyl-N-(4-(4-(quinolin-2-yl)piperazin-1-yl)butyl)cyclohexanecarboxamide], in assay [1], the inhibitory constant (Ki) worked out at 62 ± 12.7 nM and the “D2/D3 (D3 selectivity ratio, D2 Ki/D3 Ki)” value is on record as 50. The Ki in assay [2] came to 3090 ± 768 nM.
On to `CC(C)(C)c1nc(N2CCN(CCCCNC(=O)N3CCN(C(c4ccccc4)c4ccc(Cl)cc4)CC3)CC2)cc(C(F)(F)F)n1` (centres unmarked) [Compound 73, N-(4-(4-(2-(tert-Butyl)-6-(trifluoromethyl)pyrimidin-4-yl)piperazin-1-yl)butyl)-4-((4-chlorophenyl)(phenyl)methyl)piperazine-1-carboxamide], for which, in assay [1], affinity was put at a Ki of 130 ± 13 nM and the “D2/D3 (D3 selectivity ratio, D2 Ki/D3 Ki)” value is given as 8. Moreover, the Ki in assay [2] was determined as 990 ± 192 nM.
Take `CC(C)(C)c1cc(N2CCN(CCCCNC(=O)c3cn4ccccc4n3)CC2)nc(C(C)(C)C)n1` [Compound 122, N-(4-(4-(2,6-Di-tert-butylpyrimidin-4-yl)piperazin-1-yl)butyl)imidazo[1,2-a]pyridine-2-carboxamide]: in assay [1], the affinity corresponds to a Ki of 18.8 ± 3.5 nM and the “D2/D3 (D3 selectivity ratio, D2 Ki/D3 Ki)” value is given as 19. In addition, in assay [2], the Ki was 361 nM.
For the compound `CC(C)(C)c1nc(N2CCN(CCCCNC(=O)N3CCN(Cc4ccccc4)CC3)CC2)cc(C(F)(F)F)n1` [Compound 36, 4-Benzyl-N-(4-(4-(2-(tert-butyl)-6-(trifluoromethyl)pyrimidin-4-yl)piperazin-1-yl)butyl)piperazine-1-carboxamide], in assay [1], the inhibition constant (Ki) was 16.7 ± 4.4 nM and the “D2/D3 (D3 selectivity ratio, D2 Ki/D3 Ki)” value is 32. Besides, the affinity in assay [2] corresponds to a Ki of 530 ± 45 nM.
For `CC(C)(C)c1nc(N2CCN(CCCCNC(=O)N3CCN(S(=O)(=O)c4ccccc4)CC3)CC2)cc(C(F)(F)F)n1` [Compound 77, N-(4-(4-(2-(tert-Butyl)-6-(trifluoromethyl)pyrimidin-4-yl)piperazin-1-yl)butyl)-4-(phenylsulfonyl)piperazine-1-carboxamide], in that order: 138 ± 28.8 nM, 7 and 981 ± 73.9 nM.
Turning to `O=C(NCCCCN1CCN(c2ccnc3cc(C(F)(F)F)ccc23)CC1)c1cn2ccccc2n1` [Compound 124, N-(4-(4-(7-(Trifluoromethyl)quinolin-4-yl)piperazin-1-yl)butyl)imidazo[1,2-a]pyridine-2-carboxamide], the Ki came out at 98.7 ± 24.3 nM in assay [1] and 4980 ± 843 nM in assay [2].
Regarding `CC(C)(C)c1nc(N2CCN(CCCCNC(=O)N3CCc4ccccc4CC3)CC2)cc(C(F)(F)F)n1` [Compound 42, N-(4-(4-(2-(tert-Butyl)-6-(trifluoromethyl)pyrimidin-4-yl)piperazin-1-yl)butyl)-4,5-dihydro-1H-benzo[d]azepine-3(2H)-carboxamide], the inhibitory constant (Ki) in assay [1] was determined as 2.3 ± 0.3 nM; in assay [2], 646 ± 1.5 nM. In addition, the “D2/D3 (D3 selectivity ratio, D2 Ki/D3 Ki)” value in assay [1] is given as 281.
Take `CCN1CCN(C(=O)NCCCCN2CCN(c3cc(C(F)(F)F)nc(C(C)(C)C)n3)CC2)CC1` [Compound 65, N-(4-(4-(2-(tert-Butyl)-6-(trifluoromethyl)pyrimidin-4-yl)piperazin-1-yl)butyl)-4-ethylpiperazine-1-carboxamide]: in assay [1], the inhibitory constant (Ki) was 8.6 ± 1.1 nM and the “D2/D3 (D3 selectivity ratio, D2 Ki/D3 Ki)” value is 15. This compound returned an inhibition constant (Ki) in assay [2] of 128 ± 25.8 nM.
`O=C(NCCCCN1CCN(c2cc(C(F)(F)F)nc3ccccc23)CC1)N1CCN(c2ccccc2)CC1` [Compound 99, 4-Phenyl-N-(4-(4-(2-(trifluoromethyl)quinolin-4-yl)piperazin-1-yl)butyl)piperazine-1-carboxamide]: in assay [1], affinity was put at a Ki of 299 ± 37.8 nM and the “D2/D3 (D3 selectivity ratio, D2 Ki/D3 Ki)” value was 24. Further, the Ki in assay [2] stood at 7250 ± 754 nM.
`CC(C)(C)c1nc(N2CCN(CCCCNC(=O)N3CCN(c4ccnc5cc(Cl)ccc45)CC3)CC2)cc(C(F)(F)F)n1` [Compound 63, N-(4-(4-(2-(tert-Butyl)-6-(trifluoromethyl)pyrimidin-4-yl)piperazin-1-yl)butyl)-4-(7-chloroquinolin-4-yl)piperazine-1-carboxamide]: in assay [1], the affinity corresponds to a Ki of 19.2 ± 3.6 nM and the “D2/D3 (D3 selectivity ratio, D2 Ki/D3 Ki)” value is recorded as 19. Besides, in assay [2], affinity was put at a Ki of 359 ± 45.8 nM.
